# Structures can show the parent of a compound that is named as a salt.
# How the values were obtained:
# [1] = In vitro release of naltrexone from drug-loaded formulations at 37° C. in isotonic phosphate buffer; type: physicochemical; details: compared with hydrated naltrexone base; 25% 50/50 PLGA (i.v. 0.64) with pure PEG 400 or 50/50% PEG 400/TEC; drug 20% w/w
# Protocol: The solutions were stirred to yield a uniform mixture. Acetone was evaporated from the mixtures by heating at 60-75° C. with constant stirring. The blank formulations were kept in a vacuum oven at 60-75° C. overnight to ensure complete removal of acetone. […] Either hydrated naltrexone base (20% w/w) or naltrexone hydrochloride (20% w/w) was added to the blank formulations and mixed thoroughly to ensure uniform distribution of the drugs in the formulations. Drug release from the drug-loaded formulations was performed at 37° C. in isotonic phosphate buffer. […] This is because the solubility of the naltrexone hydrochloride in the dissolution buffer is much greater than that of the hydrated naltrexone base.
# [2] = Solubility in water / dissolution buffer; type: physicochemical
# [3] = In vitro release of oxytetracycline from drug-loaded formulations at 37° C. in isotonic phosphate buffer containing sodium sulfite; type: physicochemical; details: for drug release / drug release (rank among plasticizers): drug 20% w/w
# Protocol: A polymer (25% w/w of 50/50 lactide-co-glycolide copolymer, inherent viscosity of 0.59) was dissolved in a minimum quantity of acetone. Pure polyethylene glycol 400 (PEG 400) was added to the polymer solution. The solution was stirred to yield a uniform mixture. Acetone was evaporated from the mixture by heating at 60-75° C. with constant stirring. The blank formulation was kept in a vacuum oven at 60-75° C. overnight to ensure complete removal of acetone. […] Three different concentrations of oxytetracycline base (either 10, 20 or 30% w/w) were added to the blank formulation and mixed thoroughly to ensure uniform distribution of the drug in the formulations. Drug release from the drug-loaded formulations was performed at 37° C. in isotonic phosphate buffer containing sodium sulfite as an antioxidant. […] This increase occurred because, at higher drug-loadings, more drug is available on the surface of the formulations for release. Moreover, a higher drug concentration gradient between the formulation and the dissolution medium is expected at 30% w/w drug-loading compared to the one at 10% w/w drug loading.
# (§1) A polymer (25% w/w of 50/50 lactide-co-glycolide copolymer, inherent viscosity of 0.59) was dissolved in a minimum quantity of acetone. […] The resulting solutions were stirred to yield uniform mixtures. Acetone was evaporated from the mixtures by heating at 60-75° C. with constant stirring. The blank formulations were kept in a vacuum oven at 60-75° C. overnight to ensure complete removal of acetone. […] Oxytetracycline base (20% w/w) was added to each blank formulation and mixed thoroughly to ensure uniform distribution of the drug in the formulations. Drug release from the drug-loaded formulations was performed at 37° C. in isotonic phosphate buffer containing sodium sulfite as an antioxidant.
# Three different concentrations (10, 20 or 25% w/w) of a polymer (50/50 lactide-co-glycolide copolymer, inherent viscosity of 0.59) were dissolved in a minimum quantity of acetone. Pure PEG 400 (90, 80 or 75% w/w) was added to the polymer solutions. The solutions were stirred to yield uniform mixtures. Acetone was evaporated from the mixtures by heating at 60-75° C. with constant stirring. The blank formulations were kept in a vacuum oven at 60-75° C. overnight to ensure complete removal of acetone. The resulting formulations obtained were matrices with varying viscosities or consistency. The formulation with 25% polymer was considerably more viscous than the one with 10% polymer. Oxytetracycline base (20% w/w) was added to each blank formulation and mixed thoroughly to ensure uniform distribution of the drug in the formulations. Drug release from the drug-loaded formulations was performed at 37° C. in isotonic phosphate buffer containing sodium sulfite as an antioxidant.
# as §1, with “overmight” for “overnight”
# The resulting solutions were stirred to yield uniform mixtures. Acetone was evaporated from the mixtures by heating at 60-75° C. with constant stirring. The blank formulations were kept in a vacuum oven at 60-75° C. overnight to ensure complete removal of acetone. […] Oxytetracycline base (20% w/w) was added to each blank formulation and mixed thoroughly to ensure uniform distribution of the drug in the formulations. […]
# [4] = In vivo release of oxytetracycline from biodegradable delivery systems in quail; details: delivery systems with varying polymer molecular weights (FIG. 16)
# Text: FIG. 16 describes the effect of varying polymer molecular weights on in vivo release of oxytetracycline base from biodegradable delivery systems.
compound,measurement,setting,value
O=C1CC[C@@]2(O)[C@H]3Cc4ccc(O)c5c4[C@@]2(CCN3CC2CC2)[C@H]1O5 [naltrexone hydrochloride],drug release,[1],considerably faster
same,solubility in the dissolution buffer,"[2]; compared with hydrated naltrexone base, isotonic phosphate buffer",much greater
CN(C)[C@@H]1C(=O)C(C(N)=O)=C(O)[C@@]2(O)C(=O)C3=C(O)c4c(O)cccc4[C@@](C)(O)[C@H]3[C@H](O)[C@@H]12 [oxytetracycline base],drug release,[3]; blend of 75% PEG 400 and 25% TEC compared with 50/50% PEG 400/TEC at similar polymer to plasticizer ratio,considerably faster
same,drug release,"[3]; effect of decreasing polymer from 25% to 10% (PEG 400 75% to 90%), 50/50 PLGA i.v. 0.59",dramatically increased the drug release
same,drug release,"[3]; effect of decreasing polymer inherent viscosity from 0.76 to 0.15, 50/50 PLGA, PEG 400",dramatically increased the drug release
same,drug release,"[3]; effect of going from 0% PEG 400/100% TEC to 100% PEG 400/0% TEC, 25% w/w 50/50 PLGA (i.v. 0.59)",faster drug release
same,cumulative amount of drug released at the end of 360 hours,"[3]; effect of increasing drug loading from 10 to 30% w/w, 25% w/w 50/50 PLGA (i.v. 0.59), PEG 400",increased the cumulative amount of drug released
same,drug release (rank among plasticizers),"[3]; formulations prepared with ATEC, 25% w/w 50/50 PLGA (i.v. 0.59)",slowest
same,drug release (rank among plasticizers),"[3]; formulations prepared with PEG 400, 25% w/w 50/50 PLGA (i.v. 0.59)",fastest
same,drug release (rank among plasticizers),"[3]; formulations prepared with TEC, 25% w/w 50/50 PLGA (i.v. 0.59)",Intermediate drug release
same,drug release,"[3]; polymer to plasticizer ratio 1:5 (16.67% polymer) compared with 1:3 (25% polymer), PEG 400/TEC blends",faster drug release
same,in vivo release,[4],desired controlled release of the OTC was achieved
CN(C)[C@@H]1C(O)=C(C(N)=O)C(=O)[C@@]2(O)C(O)=C3C(=O)c4c(O)cccc4[C@@](C)(O)[C@H]3[C@H](O)[C@@H]12 [oxytetracycline hydrochloride],aqueous solubility,[2]; hydrochloride salt compared with the base,greater aqueous solubility

# Reference: patent US20040018238A1, “Biodegradable vehicles and delivery systems of biolgically active substances” (priority 2003, published 2004)
